Laboratory results reported in US6827926B2, “Metallotetrapyrrolic photosensitizing agents for use in photodynamic therapy” (Miravant Pharmaceuticals, Inc., priority 2001, dated 2004).
Where two headings read alike, the source gives them in different places.

Columns and labels:
[1] = test system: normal skin of CD Hairless male rats; format: in vivo, rat
From the text: We tested metallo- and metal-free tetrapyrroles systemically (see following section) for normal skin response in relation to the pharmacodynamic distribution of the photosensitizers in CD hairless rats. The skin of CD hairless rats are poorly developed, often referred to as hyperkeratotic, with various sized cystic hair follicles containing concentric lamellar accumulations of keratinaceous material, which are often associated with enlarged sebaceous glands. It quickly became apparent that gallium tetrapyrroles induced a marked clearing of the hyperkeratotic lesions in the treatment areas on the hairless rats. In fact, this clearing could be induced without necrosis of the skin. No other metallotetrapyrrole type produced such effects. This observation led us to assess the metallotetrapyrrolic compounds for skin restructuring effects both topically and systemically and for their ability to reduce hair growth in the following animal models.
Photosensitizer normal skin response as well as skin healing response, was evaluated using CD Hairless male rats. Photosensitizers were administered in an liposomal egg yolk phospholipid formulation at 1, 1.5 and 2 μmol/kg body weight formulation per dose group as a single bolus intravenous injection given through a marginal tail vein using a 27 gauge needle and a 1 cc tuberculin syringe. Normal skin responses were evaluated by irradiating several spots on the skin of the rat with a 532 nm laser (150 mW/cm^2, 150J, 1 cm diameter) at 1, 6, 24, 48, and 96 hrs post injection. Normal skin responses were evaluated and documented. The time at which the last spot is observed at the concentration injected is reported in the far right hand column in Tables 3, 4, 5 and 6. Skin samples were taken for histological evaluation at days 1, 10, 20 and 22 post light treatment. Rats were housed under normal lighting and all study procedures involving the test article were conducted under light filtered through blue and green Roscolox light filters to prevent photoactivation or degradation of the drug.

[2] = test system: V79 (Chinese Hamster Lung Fibroblasts) cells; test: In vitro cytotoxicity assay (light EC50, Alamar blue); format: cell-based; details: Table 3 porphyrins, 24 h drug incubation, 532 nm, 1.25 J/cm^2, read-out: In Vitro EC50 Light
How it was run: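 V79 cells in phenol-free 5% FBS/DMEM exposed 24 h to photosensitizer at final 0.01–5.0 μM, six replicates, then washed and light-treated, with a dark plate as control. Survival by Alamar blue after 24 h dark incubation, read at 570/600 nm.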

[3] = test system: normal uninjured rat carotid arteries (medial and adventitial cell populations); test: In vivo rat carotid artery acellularity after PDT; set-up: species or system Sprague Dawley rats; details: for Max % rat Artery Accelularity: Table 3, drug dose 1 μMol
How it was run: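 Metallated photosensitizers light-activated in normal uninjured rat left common carotid via balloon catheter introduced through femoral arteriotomy under isoflurane; excitation 575 nm (Ga, Zn, Al, Sn) or 532 nm (Pt). Arteries harvested 3 days post-treatment, H&E-stained; medial and adventitial cell density assessed by light microscopy.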

[4] = 50 J/cm^2, 3 days post treatment
[5] = Table 3, time of last skin spot observed post injection, 1 μmol, 532 nm laser

Compound | Normal skin Response (1 μmol) ([1]; rat, in vivo) [h] | EC50 [2] [µM] | Max % rat Artery Accelularity [3, 4] [%] | also measured
Aluminum Chloride Mesoporphyrin Dimethyl Ester [Example 30] | 24 | 3 | 0 | –
CCC1=C(C)C2=[N+]3C1=Cc1c(C)c(CC)c4[n]1[In-2]31([Cl])[n]3c(c(C)c(CCC(=O)NC)c3=CC3=[N+]1C(=C4)C(C)=C3CCC(=O)NC)=C2 [Example 59, Indium Chloride Mesoporphyrin N-methylamide] | 48 | 0.17 | 60 | –
Gallium Chloride 8,13-diethyl-3,7,12,17-tetramethylporphyrin-2,18-di(3′-methoxypropyl) [Example 10] | 48 | 0.4 | 75 | –
C=CC1=C(C)C2=Cc3c(C=C)c(C)c4[n]3[Al-2]35([Cl])[n]6c(c(C)c(CCC(=O)OC)c6=CC6=[N+]3C(=C4)C(C)=C6CCC(=O)OC)=CC1=[N+]25 [M=Al R1=V R3=Me R4=V R2=CO2Me] | 6 | 3.5 | 0 | –
CCC1=C(C)c2cc3[n-]c(cc4nc(cc5[n-]c(cc1n2)c(C)c5CC)C(C)=C4CCCOC)c(CCCOC)c3C.[Cl-].[In+3] [Example 75, Indium Chloride 8,13-diethyl-3,7,12,17-tetramethylporphyrin-2,18-di(3′-methoxypropyl)] | 96 | 0.06 | 75 | –
CCC1=C(C)c2cc3[n-]c(cc4nc(cc5[n-]c(cc1n2)c(C)c5CC)C(C)=C4CCC(=O)[O-])c(CCC(=O)[O-])c3C.[Ga+3].[Na+].[Na+].[OH-] [Example 109, Gallium Hydroxy Mesoporphyrin Disodium Salt] | – | 2.4 | – | Normal skin Response (1 μmol) in hrs ([1]; rat, in vivo): none; normal skin response at the drug doses used ([1]; rat, in vivo): no observed normal skin response; acellularity following PDT of rat arteries at longer treatment times post injection ([3]; 16, 24 hrs post injection): significant acellularity; accelularity in rat artery at a four hour treatment point ([3]; 4 hrs post administration): 10%; Max % rat Artery Accelularity ([3]; 4 hrs): 10/4 hrs. %; Max % rat Artery Accelularity ([3]; 24 hrs): 100/24 hrs %
C=CC1=C(C)C2=Cc3c(C=C)c(C)c4[n]3[Sn-2]35([Cl])([Cl])[n]6c(c(C)c(CCC(=O)OC)c6=CC6=[N+]3C(=C4)C(C)=C6CCC(=O)OC)=CC1=[N+]25 [M=Sn R1=V R3=Me R4=V R2=CO2Me] | – | 1.4 | 10 | Normal skin Response (1 μmol) [1, 5]: 24 h
COC(=O)CCC1=C(C)c2cc3[n-]c(cc4nc(cc5[n-]c(cc1n2)c(CCC(=O)OC)c5C)C(CO)=C4C)c(CO)c3C.[Cl-].[Ga+3] [Example 40, Gallium Chloride 3,8-hydroxymethyl deuteroporphyrin dimethyl ester] | – | 0.6 | 5 | Normal skin Response (1 μmol) [1, 5]: 6 h
CCOC(=O)CCCCC1=C(C)C2=Cc3c(CC)c(C)c4[n]3[Zn-2]35[n]6c(c(C)c(CCCCC(=O)OCC)c6=CC1=[N+]23)=CC1=[N+]5C(=C4)C(CC)=C1C (stereo not shown) [Example 55, Zinc 8,13-diethyl-3,7,12,17-tetramethylporphyrin-2,18-di(pentanoic acid ethyl ester)] | 24 | 4 | 0 | –
CCC1=C(C)c2cc3[n-]c(cc4nc(cc5[n-]c(cc1n2)c(C)c5CC)C(C)=C4CCCCC(=O)[O-])c(CCCCC(=O)[O-])c3C.[Ga+3].[Na+].[Na+].[OH-] [Example 114, Gallium Hydroxy 8,13-diethyl-3,7,12,17-tetramethylporphyrin-2,18-di(pentanoic acid sodium salt)] | 24 | 2.3 | 20 | –
